The values that follow come from ChEMBL document CHEMBL1149530, “Design and synthesis of a new, conformationally constrained, macrocyclic small-molecule inhibitor of STAT3 via 'click chemistry'” (Bioorg Med Chem Lett, 2007).

As usually defined, the Ki is a dissociation constant, usually derived from enzyme kinetics or from competition with a known ligand.

Where a SMILES comes first, the peptide text is derived from it. Bridges are numbered along the chain shown (N, C = ends). Triazole bridges read from a SMILES are 1,4-linked. [ ]: non-standard residue; d: D form. pY = N[C@@H](Cc1ccc(OP(=O)(O)O)cc1)C(=O)O; Lys(N3) = [N-]=[N+]=NCCCC[C@H](N)C(=O)O; Pra = C#CC[C@H](N)C(=O)O

The assay addresses Signal transducer and activator of transcription 3 (Homo sapiens, UniProt P40763). Nature of the assay: Binding affinity to recombinant STAT3 by fluorescence polarization based binding assay. In general terms: Polarisation of emitted light reports the rotation of a fluorescent probe.

Signal transducer and activator of transcription 3, sequence (P40763 whole entry): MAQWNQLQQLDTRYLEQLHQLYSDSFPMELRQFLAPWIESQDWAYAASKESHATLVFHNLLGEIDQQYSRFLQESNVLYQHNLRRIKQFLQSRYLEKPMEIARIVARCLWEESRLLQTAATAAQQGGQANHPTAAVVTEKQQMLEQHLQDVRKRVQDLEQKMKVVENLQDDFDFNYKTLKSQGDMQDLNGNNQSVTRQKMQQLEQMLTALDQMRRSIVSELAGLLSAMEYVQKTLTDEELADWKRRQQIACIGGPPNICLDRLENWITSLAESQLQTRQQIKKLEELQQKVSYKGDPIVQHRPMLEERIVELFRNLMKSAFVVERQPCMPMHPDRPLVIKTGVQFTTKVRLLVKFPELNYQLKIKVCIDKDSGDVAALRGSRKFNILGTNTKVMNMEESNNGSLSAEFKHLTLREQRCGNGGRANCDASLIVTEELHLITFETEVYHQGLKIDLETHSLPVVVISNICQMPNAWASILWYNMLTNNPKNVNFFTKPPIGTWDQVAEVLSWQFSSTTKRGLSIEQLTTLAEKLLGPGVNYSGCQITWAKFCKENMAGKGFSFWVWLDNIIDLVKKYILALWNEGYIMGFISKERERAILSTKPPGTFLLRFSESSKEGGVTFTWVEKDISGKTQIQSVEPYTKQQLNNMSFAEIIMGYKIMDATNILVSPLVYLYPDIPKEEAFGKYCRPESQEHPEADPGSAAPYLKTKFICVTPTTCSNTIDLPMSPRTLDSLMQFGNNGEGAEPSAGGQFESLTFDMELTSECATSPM

Turning to `CC(=O)N[C@@H](Cc1ccc(OP(=O)(O)O)cc1)C(=O)N[C@@H](CC(C)C)C(=O)N[C@H]1CCCCn2cc(nn2)C[C@@H](C(=O)N[C@@H](Cc2ccccc2)C(N)=O)NC(=O)[C@H]([C@@H](C)O)NC1=O` (Ac-[pY]L[Lys(N3)]T[Pra]F-NH2; triazole 3-5), the Ki amounted to 7.3 µM.
The same measure for `CC(=O)N[C@@H](Cc1ccc(OP(=O)(O)O)cc1)C(=O)N[C@@H](CC(C)C)C(=O)N[C@@H](CCCCN)C(=O)N[C@H](C(=O)N[C@@H](CCCCN)C(=O)N[C@@H](Cc1ccccc1)C(N)=O)[C@@H](C)O` (HELM PEPTIDE1{[ac].[O=C([C@H](Cc1ccc(OP(=O)(O)O)cc1)N[*:1])[*:2]].L.K.T.K.F.[am]}$$$$V2.0): 25.9 µM.
